Among the data in a melting point compilation (Tetko et al.; mined from patent text by program, amines drawn as free bases though some values may be those of a salt) are melting point values, retold here.

As to `COc1ccc(CN(C)CCCCc2ccc(NC(=O)c3cccc4c(=O)c5cccc(N)c5[nH]c34)cc2)cc1OC`, the melting point (usually the temperature, or range, at which the solid turns liquid) is 250 °C.

The compound `C/C(=C\c1ccc(CO)cc1)c1ccc2c(c1)C(C)(C)C(O)CC2(C)C` (configuration not stated) displayed a melting point of 182 to 183 °C. `O=C1CC=Cc2ncncc21`: the melting point lay within 211 to 212 °C. With `CC(=O)OCc1cccc(Cl)c1NS(=O)(=O)c1nc2nc(C)cc(C)n2n1` the figure was 214 to 217 °C; with `CCN(CC1CC1)c1c([N+](=O)[O-])cc(C(F)(F)F)c(N)c1[N+](=O)[O-]`, 99 to 100 °C. On to `O[C@@H](COc1ccccc1)CN(CCc1ccc(OCc2ccccc2)cc1)C[C@@H](O)COc1ccccc1` (racemic), for which the melting point lay in the range of 106 to 110 °C. With `COc1cccc2c1CCc1ccn(CCNC(C)=O)c1-2` the figure was 133 °C. Compound `CCOC(=O)c1cnn2c1c(NCCCN(C)C)nc1ccccc12` gave a melting point of 72 to 74 °C. With `COc1ccc(C(=O)Nc2ccccc2)cc1NCc1ccc(OC)c(OC)c1` the figure was 187 to 188 °C; with `CCCCSc1ccc(C(=O)Nc2ccc3cc(CN4CCCC4)cnc3c2C)cc1`, 147 °C; with `CC(CCCc1ccccc1)n1nnc2c(=O)[nH]c(Cc3ccccc3)nc21` (configuration not stated), 112 °C. Compound `Cc1cc(C(=N)N)ccc1N1CCN(c2ccc(CCC(=O)O)cc2)C1=O` returned a melting point of more than 270 °C.

In the case of `Nc1cc(OCc2ccccc2)c(C(=O)O)cc1Cl`, the melting point lay within 182 to 184 °C. The compound `CCCCCCOc1ccc(F)c(C(N)=O)c1Cl` gave a melting point of 66 to 68 °C. Under `COC(=O)C(C)(C)CCCOc1c(C)cc(OC(=O)C(C)(C)C)c(C)c1C` stands 46 to 47 °C; under `CS(=O)(=O)Oc1ccc(=O)[nH]n1`, 148 °C. With `CC(c1ccc(F)cc1)N(O)C(N)=O` (configuration not stated) the figure was 127 to 129 °C.

For the compound `COc1cc(N(C(C)=O)C2CCCCC2)c2ccccc2c1OC(C)=O`, the melting point lay in the range of 137 to 139 °C.

Turning to `Nc1nc(Cl)cc(Oc2ccc3c(C(=O)Nc4cccc(C(F)(F)F)c4)cnn3c2)n1`, the melting point lay in the range of 219 to 221 °C. `Cc1cc(C)c2nc(NCCCO)n(Cc3nc(C)ccc3O)c2c1` returned a melting point of 170 °C. With `CCCc1nc2c(N)nc3ccccc3c2n1CCOCCCS(=O)(=O)C(C)C`, the melting point is 176 to 177 °C.

`CNC(=O)n1nc(Oc2ncc(C(F)(F)F)cc2Cl)c(C)c1C`: the melting point is 117 to 118 °C.

In turn, `O=C(NNC(=O)C(Cl)(Cl)Cl)c1cccc(Cl)c1` yielded a melting point of 143 to 144 °C. With `CN(C)C=CC(=O)c1ccsc1` the figure was 89 to 90 °C; with `O=[N+]([O-])c1ccc(F)c(Br)c1F`, 50 to 51.5 °C; with `CCSc1cc(C)nc(SCC)c1NC(=O)CCCCCCCCSc1nc2ccccc2s1`, 88 to 92 °C.

As for `CCCCc1nc2c(N)nc3cc(-c4ccc(C(C)(C)C)cc4)ccc3c2n1CC(C)C`, the melting point was 219 to 220 °C.

As to `C#CCNc1nc(NCC=C)nc2c(C)csc12`, the melting point was in the range of 95 to 96 °C. Under `C=CCOc1ccc2oc(C(=O)c3ccc(OC)cc3)c(C)c2c1` stands 74 to 76 °C; under `CCCCCOC(=O)C1CC(=O)NN1c1ncccc1Cl` (configuration not stated), 66 to 68 °C; under `CN1CCC(Oc2noc3ccc(Cl)cc23)CC1`, 55 to 56 °C.

Consider `Cc1cn2nc(-c3ccccc3)nc2cc1C(=O)O`, for which the melting point is 228 to 233 °C. As for `CC(=O)c1ccc(OC2SCC(O)C(O)C2O)cc1` (configuration not stated), the melting point is 195 to 198 °C.

In turn, `O=C(O)c1ccccc1Sc1cccc(OCc2ccc3ccccc3n2)c1` showed a melting point of 169 to 171 °C. With `N#Cc1ccc(N(Cc2ccc(O)c(Cl)c2)n2cnnc2)cc1-c1cc2ccccc2o1` the figure was 196 to 197 °C. Under `NC(=O)NN=Cc1ccc(OCC2CCCCC2)cc1` stands 218 to 219 °C. Under `CN1CCN(c2cccc3c2C[C@H](NC(=O)c2cccc(Oc4ccccc4)c2)CC3)CC1` stands 136 to 137 °C; under `Cc1cc(C)c2nc(NC3CCN(CCCO)CC3)n(Cc3nc(C)ccc3O)c2c1`, 172 °C; under `COc1cc2c(cc1OC)C1(CCC2=O)CCC(=O)N(C)C1=O` (configuration not stated), 168 to 170 °C. The compound `OC(CCc1ccccc1)c1cnc2sc3c(n12)CCCC3` (configuration not stated) returned a melting point of 152 to 153 °C. `CC(=O)C[C@@H]1c2cc(C#N)ccc2OC(C)(C)[C@H]1O` (relative stereo) yielded a melting point of 114 to 115 °C. With `Cc1oc(C)c(C(=O)OC2CC(C)(C)N(CC#N)C(C)(C)C2)c1C` the figure was 88 to 89 °C; with `O=C(OCc1ccc([N+](=O)[O-])cc1)C(=O)c1ccccc1C(=O)O`, 165 to 167 °C; with `CC(=O)NC(=O)CSCc1ccccc1`, 86 to 87 °C. Under `Cc1oc(CCOc2ccc(CC3SC(=O)NC3=O)cn2)nc1Cc1ccccc1` (configuration not stated) stands 110 to 111 °C. With `Cc1nnc(-c2ncn3c2[C@@H]2CCCN2C(=O)c2c(Cl)cccc2-3)o1` the figure was 253 to 254 °C; with `CCCCc1nn(-c2cc(NC(=O)CC)ccc2C(F)(F)F)c(=O)n1Cc1ccc(-c2ccccc2S(=O)(=O)NC(=O)OC(C)(C)C)cc1F`, 167 to 169 °C. Consider `CCCCOC(=O)c1ccc(NC(=NC(=O)OCC)SC)cc1`, for which the melting point is 67 to 68 °C. `CC(=O)N=NCc1ccc(OCCCCCOc2ccc(C(=O)N(C(C)C)C(C)C)c(Cl)c2)cc1` came in with a melting point of 59 to 61 °C. Under `CCOC(c1ccc(Cl)c2nc3n(c12)CCCN3c1ccc(Cl)cc1Cl)C1CC1` (configuration not stated) stands 138 to 140 °C.

Compound `CCc1cccc(CC)c1NC(=S)NC(C)C` gave a melting point of 108 to 110 °C.

With `CCOC(=O)C1=CC2(CCC1S(=O)(=O)Nn1cccc1)OCCO2` (configuration not stated), the melting point was in the range of 115 to 117 °C. `Cc1oc(-c2ccccc2)nc1COc1cncc(COc2cccc(CC(=O)O)c2)c1` registered a melting point of 143 to 144 °C. In turn, `COC(=O)Nc1nc(C)c(-c2nc3ccccc3c(=O)n2-c2cccc(C)c2)s1` came in with a melting point of 232 to 233 °C.

The compound `O=C(O)/C(=C/c1cnc(-c2ccccc2)n1Cc1ccccc1Cl)Cc1ccccc1` showed a melting point of 211 to 213 °C. `CCNC(=O)c1cc2ccc(OC)cc2n1CCNC(C)=O` came in with a melting point of 135 to 136 °C. For the compound `Cc1c2cnccc2c(C)c2c1c1cc(O)ccc1n2C`, the melting point lay within 337 to 338 °C. With `CNC(=O)c1ccccc1Nc1nc(Nc2ccc3c(c2)N(C)CCN(CCOC)C3)ncc1Cl` the figure was 172 to 174 °C; with `COC(=O)Nc1cc(Oc2ccc3c(C(=O)Nc4ccc(CN5CCN(C)CC5)c(C(F)(F)F)c4)nccc3c2)ncn1`, 203 to 205 °C; with `CC(=O)N=c1[nH]c2ccccc2n1C1CCNCC1`, 164 °C. With `CCn1nnc(NC(=O)C2c3ccccc3Cc3ccccc32)n1` the figure was 206 to 207 °C.

`Cc1cc(OCC(F)(F)F)c(NC(=O)CN2CCN(CCSc3nc4ccccc4o3)CC2)c(OCC(F)(F)F)n1` showed a melting point of 141 to 142 °C. `O=C(NCc1cc(Br)cc2[nH]c(=O)c(=O)[nH]c12)c1ccccn1` came in with a melting point of more than 270 °C.

`O=C(c1cccc(Nc2ncnc3ccccc23)c1)N1CCN(c2ncc(Cc3ccccc3)cn2)CC1` registered a melting point of 120 to 122 °C.

In turn, `Cc1nc(-n2ccc(OCc3ccccc3)cc2=O)[nH]c1C(=O)NCc1cccnc1` gave a melting point of 203 to 204 °C. The compound `CCCC(c1ccc(C(=O)O)cc1)[Si]1(C)O[Si](C)(C)O[Si](C)(C)O[Si](C)(C)O1` (configuration not stated) yielded a melting point of 72 to 78 °C. With `Cc1ccc(S(=O)(=O)N2CC3=C(CNCC3)C2)cc1` the figure was 201 °C; with `O=C1NC(=O)c2c1c(-c1ccccc1Cl)cc1c2c(Br)cn1CCCN1CCOCC1`, 117 to 120 °C; with `CC#Cc1cc(C)nc(Nc2ccc(F)cc2)n1`, 138 to 140 °C. With `COc1cc2[nH]c(N(C)Cc3cccc(Oc4ncccn4)c3)nc(=O)c2c(C)c1OC` the figure was 224 to 228 °C. Under `CC(C)C12COc3cc(Cl)ccc3C1=NN(C(=O)Nc1ccc(C(F)(F)F)cc1)C2` (configuration not stated) stands 150 to 152 °C; under `COc1ccccc1N1CCN(CC(O)COc2ccc3cc(C(N)=O)oc3c2)CC1` (configuration not stated), 152 to 154 °C. As for `CC(Cc1ccc(S(=O)(=O)NC(=O)NC2CCCCC2)cc1)NC(=O)N1Cc2ccccc2C1=O` (configuration not stated), the melting point lay in the range of 197 to 198 °C. Under `COc1cc(-c2cc3ccccc3[nH]2)cc(OC)c1O` stands 230 °C; under `CCOC(=O)c1cccc(Sc2nc(C)c(CC(=O)O)s2)n1`, 140 to 142 °C; under `O=C(O)CCCc1ccc(S(=O)(=O)Nc2ccc(Cl)cc2)cn1`, 150 to 152 °C. With `NC(=O)c1c(I)c(C(=O)N(CC(O)CO)CC(O)CO)c(I)c(N2CCCCC2=O)c1I` (configuration not stated) the figure was 214 to 219 °C. With `C[C@@H](n1cnc2cc(C=NNS(N)(=O)=O)ccc2c1=O)[C@](O)(Cn1cncn1)c1ccc(F)cc1F` the figure was 202 to 206 °C. Turning to `CCOC(=O)c1cc2c(C)ccc(O)c2[nH]1`, the melting point is 211 to 212 °C. Under `COCOc1ccccc1OCBr` stands 40 to 42 °C. With `CC(CC(F)(F)C(F)(F)C(F)(F)C(F)(F)C(F)(F)C(F)(F)CC(C)C(=O)O)C(=O)O` (configuration not stated) the figure was 150 to 151 °C. On to `CCN(CC)CC1CCCN(CCNC(=O)N2c3cc(Cl)ccc3C(=O)Nc3cccnc32)C1` (configuration not stated), for which the melting point turned out to be 125 °C. `Cc1nc2cc(-c3ccc(C=C4SC(=O)NC4=O)cn3)cc(OCc3ccccc3)c2o1`: the melting point turned out to be 245 °C. Under `CCc1cc([N+](=O)[O-])c(N)c([N+](=O)[O-])c1C` stands 101 to 102 °C; under `NC(=O)C1(CCCN2CCCCC2)CC=CCC1c1ccccc1` (configuration not stated), 121 to 122 °C. With `CC(C)(C)C(=O)Nc1ccc(F)cc1-c1ccc(Cl)c(Cl)c1` the figure was 130 to 131 °C; with `O=C(O)COc1cccc2c1CCC(Cn1nc(C(c3ccccc3)c3ccccc3)ccc1=O)C2` (configuration not stated), 144 to 145 °C.
